Results on four compounds are retold here after paper PMC9492542, “Brain-restricted mTOR inhibition with binary pharmacology” (Nature, 2022).

Each structure is given as a SMILES string. pKd: −log10 of the molar value. “And” between values parts separate entries of the source, which are not always exact repeats. Equal entries are not always repeated.

The nature of assay [1]: Cellular activity of FKBP-binding bifunctional kinase inhibitors, with or without RapaBlock. It counts as cell-based.
In the next assay the test system is K562 CRISPRi cells. Nature of the assay: Cellular dye (TAMRA) retention assay by flow cytometry. It counts as cell-based. As to the method:
Untransduced (no virus or sgRNA^–) and sgRNA expression vector-transduced (sgRNA^+) K562 CRISPRi cells were mixed in a 1:1 ratio, plated in 48-well plates and incubated overnight. Cell mixtures were treated with the indicated TAMRA-linked compounds (300 μl final volume) and incubated for 24 h. Plates were placed over ice and 200 μl of each compound–cell mixture was transferred to a 96-well U-bottom plate. Cells were pelleted at 500g for 5 min and subsequently washed 2× with ice-cold FACS buffer (PBS + 1% BSA + 0.1% NaN3). Cells were resuspended in 200 μl of ice-cold FACS buffer and assessed using an Attune NxT (Thermo Fisher Scientific). Relative uptake of TAMRA-linked compounds was determined by comparing TAMRA fluorescence (561-nm excitation laser and 585/16-nm emission filter) between sgRNA^– and sgRNA^+ cells within each well.

The subject of assay [2] is human PBMCs. In words: IL-2 secretion of stimulated PBMCs (sandwich ELISA). Format: cell-based. On the set-up: unit not given here.
Assay [3] has as its system human PBMCs. In words: Proliferation of anti-CD3/anti-CD28 stimulated PBMCs (120 h). Format: cell-based. On the set-up: PBMC cell proliferation: unit not given here.
The target in the next assay is MTORC1. The note with it: read-out: Kd4 (drug binding to MTORC1 without FKBP); ref Banaszynski et al, PMID 15796538; cited from earlier work.
Where [4] appears, read: 0.005081 nM Rapamycin, +10 µM RapaBlock.
Where [5] appears, read: 0.005081 nM Rapamycin, No RapaBlock.
Where [6] appears, read: 0.015242 nM Rapamycin, +10 µM RapaBlock.
Where [7] appears, read: 0.015242 nM Rapamycin, No RapaBlock.
Where [8] appears, read: 0.045725 nM Rapamycin, +10 µM RapaBlock.
Setting [9] is: 0.045725 nM Rapamycin, No RapaBlock.
Where [10] appears, read: 0.137174 nM Rapamycin, No RapaBlock.
The mark [11] stands for this setting: 0.411523 nM Rapamycin, +10 µM RapaBlock.
Where [12] appears, read: 0.411523 nM Rapamycin, No RapaBlock.
The mark [13] stands for this setting: 1.23457 nM Rapamycin, No RapaBlock.
Where [14] appears, read: 3.7037 nM Rapamycin, +10 µM RapaBlock.
Setting [15] is: 3.7037 nM Rapamycin, No RapaBlock.
[16] abbreviates: 11.1111 nM Rapamycin, +10 μM RapaBlock.
[17] abbreviates: 11.1111 nM Rapamycin, No RapaBlock.
[18] abbreviates: 33.3333 nM Rapamycin, +10 μM RapaBlock.
The mark [19] stands for this setting: 33.3333 nM Rapamycin, No RapaBlock.
Where [20] appears, read: 100 nM Rapamycin, +10 μM RapaBlock.

On to `CCC(C)(C)C(=O)C(=O)N1CCCC[C@H]1C(=O)O[C@H](CCc1ccc(OC)c(OC)c1)c1cccc(NC(=O)CCC(=O)N2CCN(c3cc(Nc4ncc(C(=O)Nc5c(C)cccc5Cl)s4)nc(C)n3)CC2)c1` [SLF-Dasatinib], for which the “kinase inhibitor activity in cells” value in assay [1] is listed as “did not have kinase inhibitor activity in cells”.

As to `CO[C@H]1C[C@@H](C)C/C(C)=C/[C@@H](CCCC(=O)N2CCN(C(=O)c3ccc(C(=O)[O-])c(-c4c5ccc(=[N+](C)C)cc-5oc5cc(N(C)C)ccc45)c3)CC2)C(=O)C[C@H](O)[C@@H](C)[C@@H](/C(C)=C/[C@@H]2CC[C@@H](O)[C@H](OC)C2)OC(=O)[C@@H]2CCCCN2C(=O)C(=O)[C@]2(O)O[C@H]1[C@@H](OC)C[C@H]2C` [FK-TAMRA], the “Median TAMRA signal, fold change sgRNA+/sgRNA-” value in the assay on K562 CRISPRi cells (FKBP12 sg1, 1 nM compound) was 0.94 ×; in the assay on K562 CRISPRi cells (FKBP12 sg1, 100 nM compound), 0.17 ×; with K562 CRISPRi cells (FKBP12 sg2, 1 nM compound), 0.95 ×; with K562 CRISPRi cells (FKBP12 sg2, 100 nM compound) it was 0.23 ×; with K562 CRISPRi cells (NegCtrl sg, 1 nM compound) it was 1.00 ×; in the assay on K562 CRISPRi cells (NegCtrl sg, 100 nM compound) it was 1.00 ×.

With `CO[C@H]1C[C@@H]2CC[C@@H](C)[C@@](O)(O2)C(=O)C(=O)N2CCCC[C@H]2C(=O)O[C@H]([C@H](C)C[C@@H]2CC[C@@H](OCCOCc3cn(CCOCCOCCOCCOCCOCCOCCOCCOCCNC(=O)c4ccc(C(=O)[O-])c(-c5c6ccc(=[N+](C)C)cc-6oc6cc(N(C)C)ccc56)c4)nn3)[C@H](OC)C2)CC(=O)[C@H](C)/C=C(\C)[C@@H](O)[C@@H](OC)C(=O)[C@H](C)C[C@H](C)/C=C/C=C/C=C/1C` [RapaTAMRA], in the assay on K562 CRISPRi cells (after extensive washout), the “cellular retention (median fluorescence intensity)” value was “tenfold increase in median fluorescence intensity”.

With `CO[C@H]1C[C@@H]2CC[C@@H](C)[C@@](O)(O2)C(=O)C(=O)N2CCCC[C@H]2C(=O)O[C@H]([C@H](C)C[C@@H]2CC[C@@H](O)[C@H](OC)C2)CC(=O)[C@H](C)/C=C(\C)[C@@H](O)[C@@H](OC)C(=O)[C@H](C)C[C@H](C)/C=C/C=C/C=C/1C` [Rapamycin], the IL-2 secretion in the assay with human PBMCs [2] (setting [4]) is 3684.01 and 3841.04 and 3311.59; in the assay with human PBMCs [2] (setting [5]) it was 3505.26 and 3941.8 and 3950.69; with human PBMCs [2] (setting [6]) it was 3960.64 and 4023.71 and 3669.35; with human PBMCs [2] (setting [7]) it was 3568.59 and 3802.04 and 3829; in the assay with human PBMCs [2] (setting [8]), 3856.22 and 4056.95 and 3791.84; in the assay on human PBMCs [2] (setting [9]) it was 3351.9 and 3536.4 and 3552.37. The IL-2 secretion in the assay with human PBMCs [2] (0.137174 nM Rapamycin, +10 µM RapaBlock) is 4033.13 and 3577.76 and 4020.83; with human PBMCs [2] (setting [10]) it was 2937.87 and 3159.28 and 3403.45; in the assay on human PBMCs [2] (setting [11]), 4004.34 and 3499.5 and 3861.19; in the assay on human PBMCs [2] (setting [12]), 2246.17 and 2618.32 and 2523.84; with human PBMCs [2] (1.23457 nM Rapamycin, +10 µM RapaBlock), 4301.65 and 4395.86 and 4103.8; in the assay with human PBMCs [2] (setting [13]), 1538.76 and 1946.24 and 1803.35. The IL-2 secretion with human PBMCs [2] (setting [14]) is 4066.89 and 3684.01 and 4230.73; with human PBMCs [2] (setting [15]), 1476.21 and 1624.34 and 1751.53; in the assay on human PBMCs [2] (setting [16]), 4063.23 and 3946.51 and 4144.88; in the assay on human PBMCs [2] (setting [17]), 1251.92 and 1234.65 and 1398.74; in the assay with human PBMCs [2] (setting [18]), 4013.77 and 3518.61 and 4247.74; in the assay with human PBMCs [2] (setting [19]), 908.82 and 1132.58 and 1090.71. The IL-2 secretion in the assay on human PBMCs [2] (setting [20]) is 4023.19 and 3609.68 and 3592.67; in the assay with human PBMCs [2] (100 nM Rapamycin, No RapaBlock), 580.372 and 339.335 and 575.923. The PBMC cell proliferation is 90.8 in the assay on human PBMCs [3] (setting [4]); 89.3 and 86.4 and 86.7 in the assay with human PBMCs [3] (setting [5]); 94.6 in the assay on human PBMCs [3] (setting [6]); 70.2 and 84.2 and 80.1 in the assay on human PBMCs [3] (setting [7]); 99.9 in the assay on human PBMCs [3] (setting [8]); 58.9 and 71.7 and 68.2 with human PBMCs [3] (setting [9]). For the same compound, the PBMC cell proliferation with human PBMCs [3] (setting [10]) was 55.1 and 66 and 63.4; in the assay on human PBMCs [3] (setting [11]), 100.4; in the assay with human PBMCs [3] (setting [12]), 48.5 and 57.3 and 55.8; with human PBMCs [3] (setting [13]), 43.2 and 50.6 and 45.3; in the assay with human PBMCs [3] (setting [14]) it was 92 and 97.7; in the assay with human PBMCs [3] (setting [15]), 44.5 and 45.4 and 43.4. Moreover, the PBMC cell proliferation in the assay on human PBMCs [3] (setting [16]) was 99 and 90.8 and 96.3; in the assay with human PBMCs [3] (setting [17]), 42 and 45.8 and 42.6; in the assay with human PBMCs [3] (setting [18]), 96.2 and 95.1 and 85.5; in the assay with human PBMCs [3] (setting [19]), 41.2 and 44.7 and 42.3; in the assay with human PBMCs [3] (setting [20]), 73.2 and 69.6 and 68.3; in the assay on human PBMCs [3] (100 nM Rapamycin, No RapaBlock), 32 and 34 and 31.5. Besides, the pKd on MTORC1 is 4.59.
